According to patent US9611267B2, “Substituted tricyclic compounds as FGFR inhibitors” (Incyte Corporation, priority 2012, dated 2017):

Tests used:
Type in all cases: biochemical
FGFR1 = FGFR1 (Homo sapiens (Human), UniProt P11362); assay: FGFR enzymatic assay (FRET peptide phosphorylation), FGFR1; conditions: FGFR1 enzyme 0.02 nM, ATP 210 μM
Experimental: (§1) The inhibitor potency of the exemplified compounds was measured in an enzyme assay that measures peptide phosphorylation using FRET measurements to detect product formation. Inhibitors were serially diluted in DMSO and a volume of 0.5 μL was transferred to the wells of a 384-well plate. For FGFR3, a 10 μL volume of FGFR3 enzyme (Millipore) diluted in assay buffer (50 mM HEPES, 10 mM MgCl2, 1 mM EGTA, 0.01% Tween-20, 5 mM DTT, pH 7.5) was added to the plate and pre-incubated for 5-10 minutes. Appropriate controls (enzyme blank and enzyme with no inhibitor) were included on the plate. […] The plate was incubated at 25° C. for 1 hr. […] The plate was allowed to equilibrate for ˜1 hr before scanning the wells on a PheraStar plate reader (BMG Labtech).
(§2) The enzymes were purchased from Millipore or Invitrogen.
(§3) GraphPad prism3 was used to analyze the data. The IC50 values were derived by fitting the data to the equation for a sigmoidal dose-response with a variable slope. Y=Bottom+(Top−Bottom)/(1+10^((LogIC50−X)*HillSlope)) where X is the logarithm of concentration and Y is the response.

FGFR2 = FGFR2 (Homo sapiens (Human), UniProt P21802); assay: FGFR enzymatic assay (FRET peptide phosphorylation), FGFR2; conditions: FGFR2 enzyme 0.01 nM, ATP 100 μM
Chain of FGFR2 (P21802 22-821): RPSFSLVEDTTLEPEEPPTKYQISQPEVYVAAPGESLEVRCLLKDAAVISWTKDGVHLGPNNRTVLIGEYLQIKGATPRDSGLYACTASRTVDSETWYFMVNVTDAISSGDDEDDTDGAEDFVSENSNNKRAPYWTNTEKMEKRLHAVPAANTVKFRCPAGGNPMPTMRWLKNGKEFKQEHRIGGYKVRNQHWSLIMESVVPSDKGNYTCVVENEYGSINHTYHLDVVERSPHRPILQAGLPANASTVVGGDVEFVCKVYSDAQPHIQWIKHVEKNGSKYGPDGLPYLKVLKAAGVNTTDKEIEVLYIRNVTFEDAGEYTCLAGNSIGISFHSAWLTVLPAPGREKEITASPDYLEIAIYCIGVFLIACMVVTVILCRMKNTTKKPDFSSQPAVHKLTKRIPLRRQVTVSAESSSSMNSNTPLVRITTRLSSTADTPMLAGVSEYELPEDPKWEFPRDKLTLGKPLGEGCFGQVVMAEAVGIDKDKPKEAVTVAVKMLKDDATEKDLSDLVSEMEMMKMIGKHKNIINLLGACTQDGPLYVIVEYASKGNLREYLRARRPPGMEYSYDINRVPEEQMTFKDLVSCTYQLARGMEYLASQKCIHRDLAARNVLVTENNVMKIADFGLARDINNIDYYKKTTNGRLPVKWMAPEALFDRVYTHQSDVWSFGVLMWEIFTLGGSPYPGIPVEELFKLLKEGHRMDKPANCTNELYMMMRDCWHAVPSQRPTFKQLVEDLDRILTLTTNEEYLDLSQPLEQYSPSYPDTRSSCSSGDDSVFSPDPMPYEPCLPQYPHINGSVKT
Experimental: as §1, §2, §3

FGFR3 = FGFR3 (Homo sapiens (Human), UniProt P22607); assay: FGFR enzymatic assay (FRET peptide phosphorylation), FGFR3; conditions: FGFR3 enzyme (Millipore), ATP 140 μM
Chain of FGFR3 (P22607 23-806): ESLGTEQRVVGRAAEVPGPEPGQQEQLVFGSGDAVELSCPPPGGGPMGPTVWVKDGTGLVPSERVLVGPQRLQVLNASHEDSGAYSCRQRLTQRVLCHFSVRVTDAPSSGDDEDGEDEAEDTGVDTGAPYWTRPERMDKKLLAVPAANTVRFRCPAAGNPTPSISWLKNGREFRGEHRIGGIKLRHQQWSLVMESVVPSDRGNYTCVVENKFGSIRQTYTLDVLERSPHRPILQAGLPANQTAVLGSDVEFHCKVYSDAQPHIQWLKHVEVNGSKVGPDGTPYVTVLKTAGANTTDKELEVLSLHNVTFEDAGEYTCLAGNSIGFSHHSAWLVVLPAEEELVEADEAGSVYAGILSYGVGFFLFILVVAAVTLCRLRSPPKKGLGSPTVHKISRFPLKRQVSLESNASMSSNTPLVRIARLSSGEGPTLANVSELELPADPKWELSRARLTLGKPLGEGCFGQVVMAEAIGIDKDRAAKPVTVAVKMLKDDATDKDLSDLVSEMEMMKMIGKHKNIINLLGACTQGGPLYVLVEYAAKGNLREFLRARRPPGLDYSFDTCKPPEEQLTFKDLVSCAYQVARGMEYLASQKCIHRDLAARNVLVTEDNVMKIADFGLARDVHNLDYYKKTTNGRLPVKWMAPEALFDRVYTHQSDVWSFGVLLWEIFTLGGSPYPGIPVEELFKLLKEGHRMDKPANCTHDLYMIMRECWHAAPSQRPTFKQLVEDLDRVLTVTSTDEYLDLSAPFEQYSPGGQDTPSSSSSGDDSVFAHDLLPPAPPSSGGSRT
Experimental: as §1, §3

Measured: IC50

Chain of FGFR1 (P11362 22-822): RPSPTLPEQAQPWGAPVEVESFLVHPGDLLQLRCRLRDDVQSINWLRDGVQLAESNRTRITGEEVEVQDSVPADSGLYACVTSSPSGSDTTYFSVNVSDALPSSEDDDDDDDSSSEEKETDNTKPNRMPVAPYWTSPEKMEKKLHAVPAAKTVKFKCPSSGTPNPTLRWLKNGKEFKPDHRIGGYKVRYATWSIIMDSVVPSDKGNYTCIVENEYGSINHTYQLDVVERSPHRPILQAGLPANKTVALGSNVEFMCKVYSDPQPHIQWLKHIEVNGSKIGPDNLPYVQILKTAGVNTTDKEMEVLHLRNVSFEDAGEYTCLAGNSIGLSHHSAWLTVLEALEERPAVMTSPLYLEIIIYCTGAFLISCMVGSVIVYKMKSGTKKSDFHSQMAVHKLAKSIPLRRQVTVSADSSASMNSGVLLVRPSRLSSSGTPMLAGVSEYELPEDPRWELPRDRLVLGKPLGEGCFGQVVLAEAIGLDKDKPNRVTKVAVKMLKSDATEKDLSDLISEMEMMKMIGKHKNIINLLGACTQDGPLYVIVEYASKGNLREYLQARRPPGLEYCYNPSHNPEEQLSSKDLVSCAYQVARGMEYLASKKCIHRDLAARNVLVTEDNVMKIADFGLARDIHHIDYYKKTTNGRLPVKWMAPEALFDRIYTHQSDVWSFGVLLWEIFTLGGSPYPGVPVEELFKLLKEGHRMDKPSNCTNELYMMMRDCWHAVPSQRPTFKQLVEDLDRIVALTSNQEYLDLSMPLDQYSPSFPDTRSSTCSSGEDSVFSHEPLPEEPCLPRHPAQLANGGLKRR

COc1cc(OC)c(F)c(N2Cc3cnc4[nH]c(CN5CCN(C)CC5)cc4c3N(CCF)C2=O)c1F [Example 233, 3-(2,6-difluoro-3,5-dimethoxyphenyl)-1-(2-fluoroethyl)-8-[(4-methylpiperazin-1-yl)methyl]-1,3,4,7-tetrahydro-2H-pyrrolo[3′,2′:5,6]pyrido[4,3-d]pyrimidin-2-one]
< 100 nM: all assays above

CCN1CCN(Cc2cc3c4c(cnc3[nH]2)CN(c2c(F)c(OC)cc(OC)c2F)C(=O)N4C2CC2)CC1 [Example 188, 1-cyclopropyl-3-(2,6-difluoro-3,5-dimethoxyphenyl)-8-[(4-ethylpiperazin-1-yl)methyl]-1,3,4,7-tetrahydro-2H-pyrrolo[3′,2′:5,6]pyrido[4,3-d]pyrimidin-2-one]
< 100 nM: all assays above

CCCN1C(=O)N(c2c(F)c(OC)cc(OC)c2F)Cc2cnc3[nH]c(CN4CCOCC4)cc3c21 [Example 184, 3-(2,6-difluoro-3,5-dimethoxyphenyl)-8-(morpholin-4-ylmethyl)-1-propyl-1,3,4,7-tetrahydro-2H-pyrrolo[3′,2′:5,6]pyrido[4,3-d]pyrimidin-2-one]
< 100 nM: all assays above

COc1cc(OC)c(F)c(N2Cc3cnc4[nH]c(CN5CCC(O)CC5)cc4c3N(C)C2=O)c1F [Example 111, 3-(2,6-difluoro-3,5-dimethoxyphenyl)-8-[(4-hydroxypiperidin-1-yl)methyl]-1-methyl-1,3,4,7-tetrahydro-2H-pyrrolo[3′,2′:5,6]pyrido[4,3-d]pyrimidin-2-one]
< 100 nM: all assays above

COc1cc(OC)c(F)c(N2Cc3cnc4[nH]c(CCN5CCOCC5)cc4c3N(c3ccc(F)cc3)C2=O)c1F [Example 225, 3-(2,6-difluoro-3,5-dimethoxyphenyl)-1-(4-fluorophenyl)-8-(2-morpholin-4-ylethyl)-1,3,4,7-tetrahydro-2H-pyrrolo[3′,2′:5,6]pyrido[4,3-d]pyrimidin-2-one]
< 100 nM: all assays above

COc1cc(OC)c(F)c(N2Cc3cnc4[nH]ccc4c3N(Cc3ccccn3)C2=O)c1F [Example 78, 3-(2,6-difluoro-3,5-dimethoxyphenyl)-1-(pyridin-2-ylmethyl)-1,3,4,7-tetrahydro-2H-pyrrolo[3′,2′:5,6]pyrido[4,3-d]pyrimidin-2-one]
< 100 nM: all assays above

COc1cc(OC)cc(N2Cc3cnc4[nH]c(C(=O)N(C)C)cc4c3N(C)C2=O)c1 [Example 19, 3-(3,5-Dimethoxyphenyl)-N,N,1-trimethyl-2-oxo-2,3,4,7-tetrahydro-1H-pyrrolo[3′,2′:5,6]pyrido[4,3-d]pyrimidine-8-carboxamide]
< 100 nM: all assays above

CCN1CCN(C(=O)c2cc3c4c(cnc3[nH]2)CN(c2c(F)c(OC)cc(OC)c2F)C(=O)N4C)CC1 [Example 119, 3-(2,6-difluoro-3,5-dimethoxyphenyl)-8-[(4-ethylpiperazin-1-yl)carbonyl]-1-methyl-1,3,4,7-tetrahydro-2H-pyrrolo[3′,2′:5,6]pyrido[4,3-d]pyrimidin-2-one]
< 100 nM: all assays above

COc1cc(OC)c(F)c(N2Cc3cnc4[nH]cnc4c3N(C)C2=O)c1F [Example 61, 7-(2,6-difluoro-3,5-dimethoxyphenyl)-9-methyl-3,6,7,9-tetrahydro-8H-imidazo[4′,5′:5,6]pyrido[4,3-d]pyrimidin-8-one]
< 100 nM: all assays above

COc1cc(OC)c(F)c(N2Cc3cnc4[nH]c(CCN5CCOCC5)cc4c3C(C)(C)C2=O)c1F [Example 158, 7-(2,6-difluoro-3,5-dimethoxyphenyl)-9,9-dimethyl-2-(2-morpholin-4-ylethyl)-3,6,7,9-tetrahydro-8H-pyrrolo[2,3-c]-2,7-naphthyridin-8-one]
< 100 nM: all assays above

COc1cc(OC)c(F)c(N2Cc3cnc4[nH]c(CN5CC(F)C5)cc4c3C(C)(C)C2=O)c1F [Example 207, 7-(2,6-difluoro-3,5-dimethoxyphenyl)-2-[(3-fluoroazetidin-1-yl)methyl]-9,9-dimethyl-3,6,7,9-tetrahydro-8H-pyrrolo[2,3-c]-2,7-naphthyridin-8-one]
< 100 nM: all assays above

COc1cc(OC)c(F)c(N2Cc3cnc4[nH]cc(CC#N)c4c3N(C)C2=O)c1F [Example 105, [3-(2,6-difluoro-3,5-dimethoxyphenyl)-1-methyl-2-oxo-2,3,4,7-tetrahydro-1H-pyrrolo[3′,2′:5,6]pyrido[4,3-d]pyrimidin-9-yl]acetonitrile]
< 100 nM: all assays above

CCN1CCN(CCc2cc3c4c(cnc3[nH]2)CN(c2c(F)c(OC)cc(OC)c2F)C(=O)C4(C)C)CC1 [Example 159, 7-(2,6-difluoro-3,5-dimethoxyphenyl)-2-[2-(4-ethylpiperazin-1-yl)ethyl]-9,9-dimethyl-3,6,7,9-tetrahydro-8H-pyrrolo[2,3-c]-2,7-naphthyridin-8-one]
< 100 nM: all assays above

COc1cc(OC)c(F)c(N2Cc3cnc4[nH]ccc4c3N([C@@H]3CCC[C@H]3O)C2=O)c1F [Example 74, 3-(2,6-difluoro-3,5-dimethoxyphenyl)-1-[(1R,2R)-2-hydroxycyclopentyl]-1,3,4,7-tetrahydro-2H-pyrrolo[3′,2′:5,6]pyrido[4,3-d]pyrimidin-2-one]
< 100 nM: all assays above

COc1cc(OC)c(F)c(N2Cc3cnc4c(c3N(c3ccc(Cl)cc3F)C2=O)CC(=O)N4)c1F [Example 68, 1-(4-chloro-2-fluorophenyl)-3-(2,6-difluoro-3,5-dimethoxyphenyl)-3,4,7,9-tetrahydro-1H-pyrrolo[3′,2′:5,6]pyrido[4,3-d]pyrimidine-2,8-dione]
< 100 nM: all assays above

COc1cc(OC)c(F)c(N2Cc3cnc4[nH]ncc4c3N(C[C@@H]3CCCO3)C2=O)c1F [Example 167, 3-(2,6-Difluoro-3,5-dimethoxyphenyl)-1-[(2S)-tetrahydrofuran-2-ylmethyl]-1,3,4,7-tetrahydro-2H-pyrazolo[4′,3′:5,6]pyrido[4,3-d]pyrimidin-2-one]
< 100 nM: all assays above

COc1cc(OC)c(F)c(N2Cc3cnc4c(c3N(Cc3ccccn3)C2=O)CC(=O)N4)c1F [Example 79, 3-(2,6-difluoro-3,5-dimethoxyphenyl)-1-(pyridin-2-ylmethyl)-3,4,7,9-tetrahydro-1H-pyrrolo[3′,2′:5,6]pyrido[4,3-d]pyrimidine-2,8-dione]
< 100 nM: all assays above

COc1cccc(CN2C(=O)N(c3c(F)c(OC)cc(OC)c3F)Cc3cnc4[nH]ncc4c32)n1 [Example 176, 3-(2,6-difluoro-3,5-dimethoxyphenyl)-1-[(6-methoxypyridin-2-yl)methyl]-1,3,4,7-tetrahydro-2H-pyrazolo[4′,3′:5,6]pyrido[4,3-d]pyrimidin-2-one]
< 100 nM: all assays above
